molecular target: T1, Rlk (Homo sapiens, UniProt P42681); test: RLK Inhibition Assay, coupled enzyme assay; assay type: biochemical; conditions: enzyme inhibition data (Ki), Table 11
T1 sequence (P42681 1-527): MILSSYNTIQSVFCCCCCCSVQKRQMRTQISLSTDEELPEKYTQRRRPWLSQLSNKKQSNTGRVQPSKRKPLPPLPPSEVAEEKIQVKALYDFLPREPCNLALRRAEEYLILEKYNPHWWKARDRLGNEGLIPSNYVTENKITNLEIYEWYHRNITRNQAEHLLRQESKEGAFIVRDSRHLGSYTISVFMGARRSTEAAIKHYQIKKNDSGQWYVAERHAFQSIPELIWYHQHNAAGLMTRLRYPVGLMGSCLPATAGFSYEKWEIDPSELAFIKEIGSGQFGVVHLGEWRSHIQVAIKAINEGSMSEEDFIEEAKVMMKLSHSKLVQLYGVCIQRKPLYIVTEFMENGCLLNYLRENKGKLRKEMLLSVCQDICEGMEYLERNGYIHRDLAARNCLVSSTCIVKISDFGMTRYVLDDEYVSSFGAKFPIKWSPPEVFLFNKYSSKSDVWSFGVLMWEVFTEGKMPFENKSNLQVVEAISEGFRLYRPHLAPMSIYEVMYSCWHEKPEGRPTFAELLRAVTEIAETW
Procedure: Compounds are screened for their ability to inhibit Rlk using a standard coupled enzyme assay (Fox et al., Protein Sci., (1998) 7, 2249). Assays are carried out in a mixture of 20 mM MOPS (pH 7.0), 10 mM MgCl2, 0.1% BSA and 1 mM DTT. Final substrate concentrations in the assay are 100 μM ATP (Sigma Chemicals) and 10 μM peptide (Poly Glu:Tyr 4:1). Assays are carried out at 30° C. and in the presence of 40 nM Rlk. Final concentrations of the components of the coupled enzyme system are 2.5 mM phosphoenolpyruvate, 300 μM NADH, 30 μg/ml pyruvate kinase and 10 μg/ml lactate dehydrogenase.
An assay stock buffer solution is prepared containing all of the reagents listed above, with the exception of ATP and the test compound of interest. 60 μl of the stock solution is placed in a 96 well plate followed by addition of 2 μl of DMSO stock containing serial dilutions of the test compound (typically starting from a final concentration of 7.5 μM). The plate is preincubated for 10 minutes at 30° C. and the reaction initiated by addition of 5 μl of ATP. Initial reaction rates are determined with a Molecular Devices SpectraMax Plus plate reader over a 10 minute time course. IC50 and Ki data are calculated from non-linear regression analysis using the Prism software package (GraphPad Prism version 3.0cx for Macintosh, GraphPad Software, San Diego Calif., USA).

Ki [nM] | Compound
500 to 5000 | NCc1ccc(-c2cnc3c(-c4ccccn4)c(N)nn3c2)cc1 [Compound V-195]
500 to 5000 | NCc1cccc(-c2cnc3c(-c4ccccn4)c(N)nn3c2)c1 [Compound V-202]
500 to 5000 | CN(C)Cc1ccc(-c2cnc3c(-c4ccccn4)c(N)nn3c2)cc1 [Compound V-214]
500 to 5000 | CN(C)Cc1cccc(-c2cnc3c(-c4ccccn4)c(N)nn3c2)c1 [Compound V-215]
500 to 5000 | Nc1nn2cc(-c3cccc(N4CCNCC4)c3)cnc2c1-c1ccccn1 [Compound V-222]
500 to 5000 | Nc1nn2cc(-c3cccc(CN4CCNCC4)c3)cnc2c1-c1ccccn1 [Compound V-223]
500 to 5000 | Nc1nn2cc(-c3ccc(CN4CC[C@H](N)C4)cc3)cnc2c1-c1ccccn1 [Compound V-233]
500 to 5000 | CNCc1ccc(-c2cnc3c(-c4ccccn4)c(N)nn3c2)cc1 [Compound V-236]

Continued, molecule first:

Compound | Ki [nM]
CN(C)CCN(C)C(=O)c1ccc(-c2cnc3c(-c4ccccn4)c(N)nn3c2)cc1 [Compound V-188] | < 500
CNCCCN(C)C(=O)c1ccc(-c2cnc3c(-c4ccccn4)c(N)nn3c2)cc1 [Compound V-191] | < 500
Nc1nn2cc(-c3ccc(CN4CCNCC4)cc3)cnc2c1-c1ccccn1 [Compound V-217] | < 500
NC1NN2C=C(c3cccc(CN4CC[C@H](N)C4)c3)C=NC2=C1c1ccccn1 (stereo partly drawn) [Compound V-227] | 500 to 5000
NC1NN2C=C(c3cccc(CN4CCCNCC4)c3)C=NC2=C1c1ccccn1 (stereo not drawn) [Compound V-228] | 500 to 5000
NC1CCN(Cc2cccc(C3=CN4NC(N)C(c5ccccn5)=C4N=C3)c2)CC1 (stereo not drawn) [Compound V-229] | 500 to 5000
CNCCCN(C)Cc1ccc(-c2cnc3c(-c4ccccn4)c(N)nn3c2)cc1 [Compound V-230] | < 500
Nc1nn2cc(-c3ccc(CN4CC[C@@H](N)C4)cc3)cnc2c1-c1ccccn1 [Compound V-231] | 500 to 5000
Nc1nn2cc(-c3ccc(CNC4CCNCC4)cc3)cnc2c1-c1ccccn1 [Compound V-232] | 500 to 5000
Nc1nn2cc(-c3ccc(CN4CCC(N)CC4)cc3)cnc2c1-c1ccccn1 [Compound V-234] | 500 to 5000

molecular target: Aurora-B (Homo sapiens, UniProt Q96GD4); test: Aurora B (Aurora-1) Inhibition Assay, 33P incorporation; assay type: biochemical; conditions: enzyme inhibition data (Ki), Table 11; read-out: AurB Ki
Sequence (Q96GD4 whole entry): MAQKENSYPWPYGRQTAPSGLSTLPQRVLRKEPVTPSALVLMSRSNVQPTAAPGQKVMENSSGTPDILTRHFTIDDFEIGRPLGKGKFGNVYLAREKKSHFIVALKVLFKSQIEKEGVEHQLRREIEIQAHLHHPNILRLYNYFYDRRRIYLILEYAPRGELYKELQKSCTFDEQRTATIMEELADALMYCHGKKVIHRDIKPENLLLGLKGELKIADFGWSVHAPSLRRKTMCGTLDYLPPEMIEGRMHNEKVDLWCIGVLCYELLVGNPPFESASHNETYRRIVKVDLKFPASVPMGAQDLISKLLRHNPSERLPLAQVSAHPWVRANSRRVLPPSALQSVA
Procedure: An assay buffer solution is prepared which consists of 25 mM HEPES (pH 7.5), 10 mM MgCl2, 0.1% BSA and 10% glycerol. A 22 nM Aurora-B solution, also containing 1.7 mM DTT and 1.5 mM Kemptide (LRRASLG), is prepared in assay buffer. To 22 μL of the Aurora-B solution, in a 96-well plate, is added 2 μl of a compound stock solution in DMSO and the mixture is allowed to equilibrate for 10 minutes at 25° C. The enzyme reaction is initiated by the addition of 16 μl stock [γ-^33P]-ATP solution (˜20 nCi/μL) prepared in assay buffer, to a final assay concentration of 800 μM. The reaction is stopped after 3 hours by the addition of 16 μL 500 mM phosphoric acid and the levels of ^33P incorporation into the peptide substrate is determined by the following method.
A phosphocellulose 96-well plate (Millipore, Cat no. MAPHNOB50) is pre-treated with 100 μL of a 100 mM phosphoric acid prior to the addition of the enzyme reaction mixture (40 μL). The solution is left to soak on to the phosphocellulose membrane for 30 minutes and the plate subsequently is washed four times with 200 μL of a 100 mM phosphoric acid. To each well of the dry plate is added 30 μL of Optiphase ‘SuperMix’ liquid scintillation cocktail (Perkin Elmer) prior to scintillation counting (1450 Microbeta Liquid Scintillation Counter, Wallac). Levels of non-enzyme catalysed background radioactivity are determined by adding 16 μL of the 500 mM phosphoric acid to control wells, containing all assay components (which acts to denature the enzyme), prior to the addition of the [γ-^33P]-ATP solution. Levels of enzyme catalysed ^33P incorporation are calculated by subtracting mean background counts from those measured at each inhibitor concentration. For each Ki determination 8 data points, typically covering the concentration range 0-10 μM compound, are obtained in duplicate (DMSO stocks are prepared from an initial compound stock of 10 mM with subsequent 1:2.5 serial dilutions). Ki values are calculated from initial rate data by non-linear regression using the Prism software package (Prism 3.0, Graphpad Software, San Diego, Calif.).

Ki [nM] | Compound
500 to 5000 | Cc1ccc(-c2c(N)nn3cc(-c4ccncc4)cnc23)nc1 [Compound V-132]
500 to 5000 | Cc1ccnc(-c2c(N)nn3cc(-c4ccncc4)cnc23)c1 [Compound V-133]
500 to 5000 | Nc1nn2cc(-c3ccncc3)cnc2c1-c1ncccc1OCc1ccccc1 [Compound V-134]
500 to 5000 | Cc1cccnc1-c1c(N)nn2cc(-c3ccncc3)cnc12 [Compound V-135]
500 to 5000 | Cc1cccc(-c2c(N)nn3cc(-c4ccncc4)cnc23)n1 [Compound V-178]
< 500 | Nc1nn2cc(-c3ccncc3)cnc2c1-c1cc(N2CCCCC2)ncn1 [Compound V-179]

Source: patent US7528138B2, “Pyrazolo[1,5-a]pyrimidines useful as inhibitors of protein kinases” (Vertex Pharmaceuticals Incorporated, priority 2004, dated 2009)
